From ChEMBL document CHEMBL1149028, “Isolation and structure of cephalostatins 10 and 11” (1994) come the findings set out here.

Values after ≈ are worked out from the molar mass of the structure shown.

Common to all, as to type: functional
Experiment [1] deals with COLO 205. Briefly: Growth inhibition of human COLO205 cells.
For experiment [2], the system named is DLD-1. Briefly: Growth inhibition of human DLD1 cells.
The test system of experiment [3] is HCC 2998. Briefly: Growth inhibition of human HCC2998 cells.
In experiment [4] the test system is HCT-116. As to the kind of experiment: Growth inhibition of human HCT116 cells.
The subject of experiment [5] is HCT-15. As to the kind of experiment: Growth inhibition of human HCT15 cells.
Experiment [6] relates to HT-29. Briefly: Growth inhibition of human HT-29 cells.
For experiment [7], the system named is KM-20L2. As to the kind of experiment: Growth inhibition of human KM20L2 cells.
Experiment [8] has as its system SW-620. As to the kind of experiment: Growth inhibition of human SW620 cells.
Experiment [9] concerns SF-268. As to the kind of experiment: Growth inhibition of human SF268 cells.
Experiment [10] has as its system SF-295. As to the kind of experiment: Growth inhibition of human SF295 cells.
For experiment [11], the system named is SF-539. Briefly: Growth inhibition of human SF539 cells.
Experiment [12] relates to SNB-19. As to the kind of experiment: Growth inhibition of human SNB19 cells.
The test system of experiment [13] is SNB-75. As to the kind of experiment: Growth inhibition of human SNB75 cells.
For experiment [14], the system named is SNB-78. As to the kind of experiment: Growth inhibition of human SNB78 cells.
Experiment [15] relates to U-251. As to the kind of experiment: Growth inhibition of human U251 cells.
Experiment [16] concerns XF498. Briefly: Growth inhibition of human XF498 cells.
The subject of experiment [17] is LOX IMVI. As to the kind of experiment: Growth inhibition of human LOXIMVI cells.
Experiment [18] deals with Malme-3M. Briefly: Growth inhibition of human MALME-3M cells.
Experiment [19] deals with M14. As to the kind of experiment: Growth inhibition of human M14 cells.
Experiment [20] deals with M19-MEL. Briefly: Growth inhibition of human M19-MEL cells.
In experiment [21] the test system is SK-MEL-2. Briefly: Growth inhibition of human SK-MEL-2 cells.
The test system of experiment [22] is SK-MEL-28. Briefly: Growth inhibition of human SK-MEL-28 cells.
Experiment [23] concerns SK-MEL-5. As to the kind of experiment: Growth inhibition of human SK-MEL-5 cells.
Experiment [24] has as its system UACC-257. As to the kind of experiment: Growth inhibition of human UACC257 cells.
In experiment [25] the test system is UACC-62. As to the kind of experiment: Growth inhibition of human UACC62 cells.
For experiment [26], the system named is IGROV-1. As to the kind of experiment: Growth inhibition of human IGROV1 cells.
Experiment [27] deals with OVCAR-3. Briefly: Growth inhibition of human OVCAR-3 cells.
Experiment [28] relates to OVCAR-4. Briefly: Growth inhibition of human OVCAR4 cells.
For experiment [29], the system named is OVCAR-5. As to the kind of experiment: Growth inhibition of human OVCAR5 cells.
The test system of experiment [30] is OVCAR-8. As to the kind of experiment: Growth inhibition of human OVCAR8 cells. The conditions noted are these: OVCAR-8, read-out: pGI50 (converted).
For experiment [31], the system named is SK-OV-3. As to the kind of experiment: Growth inhibition of human SKOV3 cells.
Experiment [32] is described as follows: Growth inhibition of human 786-O cells. The conditions noted are these: 786-0.
Experiment [33] deals with A498. Briefly: Growth inhibition of human A498 cells.
Experiment [34] concerns ACHN. As to the kind of experiment: Growth inhibition of human ACHN cells.
In experiment [35] the test system is CAKI-1. As to the kind of experiment: Growth inhibition of human Caki1 cells.
The subject of experiment [36] is RXF 393. As to the kind of experiment: Growth inhibition of human RXF393 cells.
Experiment [37] relates to SN12C. As to the kind of experiment: Growth inhibition of human SN12C cells.
The test system of experiment [38] is TK-10. As to the kind of experiment: Growth inhibition of human TK10 cells.
For experiment [39], the system named is UO-31. As to the kind of experiment: Growth inhibition of human UO31 cells.
The test system of experiment [40] is DMS-273. Briefly: Growth inhibition of human DMS273 cells.
For experiment [41], the system named is KM12. As to the kind of experiment: Growth inhibition of human KM12 cells.
The test system of experiment [42] is CCRF-CEM. Briefly: Growth inhibition of human CCRF-CEM cells.
Experiment [43] relates to HL-60(TB). Briefly: Growth inhibition of human HL-60(TB) cells.
For experiment [44], the system named is K562. Briefly: Growth inhibition of human K562 cells.
Experiment [45] deals with MOLT-4. As to the kind of experiment: Growth inhibition of human MOLT4 cells.
The test system of experiment [46] is RPMI-8226. Briefly: Growth inhibition of human RPMI8226 cells.
Experiment [47] concerns SR. As to the kind of experiment: Growth inhibition of human SR cells.
The subject of experiment [48] is A549. As to the kind of experiment: Growth inhibition of human A549 cells.
Experiment [49] relates to EKVX. As to the kind of experiment: Growth inhibition of human EKVX cells.
Experiment [50] relates to HOP-18. As to the kind of experiment: Growth inhibition of human HOP18 cells.
The test system of experiment [51] is HOP-62. As to the kind of experiment: Growth inhibition of human HOP62 cells.
Experiment [52] deals with HOP-92. Briefly: Growth inhibition of human HOP92 cells.
For experiment [53], the system named is NCI-H226. As to the kind of experiment: Growth inhibition of human NCI-H226 cells.
Experiment [54] has as its system NCI-H23. As to the kind of experiment: Growth inhibition of human NCI-H23 cells.
In experiment [55] the test system is NCI-H322M. Briefly: Growth inhibition of human NCI-H322M cells.
In experiment [56] the test system is NCI-H460. As to the kind of experiment: Growth inhibition of human NCI-H460 cells.
The subject of experiment [57] is NCI-H522. As to the kind of experiment: Growth inhibition of human NCI-H522 cells.
A short description of experiment [58]: Growth inhibition of human LXFL529 cells. The conditions noted are these: LXFL 529.
Experiment [59] has as its system DMS-114. Briefly: Growth inhibition of human DMS114 cells.
In experiment [60] the test system is P388. Briefly: Growth inhibition of mouse P388 cells. To be noted: read-out: ED50 (the source's name).

`C[C@@H]1[C@]2(O[C@H]3C=C4[C@@H]5CC[C@H]6Cc7nc8c(nc7C[C@]6(C)[C@H]5C[C@@H](O)[C@]4(C)[C@]31O)C[C@@H]1CC[C@H]3C4=CC[C@@H]5[C@H](C)[C@@]6(OC[C@]45C(=O)C[C@@H]3[C@@]1(C)C8)OC(C)(C)C[C@H]6O)O[C@](C)(CO)C[C@H]2O` [CEPHALOSTATIN 1]: the GI50 in experiment [1] was 1700 pM; in experiment [2] it was 8510 pM; in experiment [3] it was 60300 pM; in [4], 525 pM; in [5], 3390 pM; in experiment [6], 2000 pM. The GI50 in [7] is 2000 pM; in [8], 302 pM; in [9] it was 2190 pM; in experiment [10] it was 43.6 pM; in experiment [11], 81.3 pM; in experiment [12], 1700 pM. In addition, the GI50 was 81.3 pM in experiment [13]; 794 pM in experiment [14]; 64.6 pM in [15]; 589 pM in [16]; 240 pM in [17]; 5250 pM in experiment [18]. The GI50 in [19] is 490 pM; in experiment [20], 47900 pM; in [21] it was 741 pM; in [22], 955 pM; in experiment [23], 3470 pM; in experiment [24] it was 3720 pM. Also, the GI50 in [25] is 389 pM; in [26], 2190 pM; in [27], 30900 pM; in experiment [28] it was 14100 pM; in experiment [29], 10000 pM; in experiment [30], 24000 pM. Further, the GI50 was 7080 pM in [31]; 77.6 pM in [32]; 537 pM in [33]; 3310 pM in experiment [34]; 724 pM in experiment [35]; 25.1 pM in [36]. For the same compound, the GI50 in experiment [37] is 21900 pM; in experiment [38], 93300 pM; in [39] it was 4170 pM; in experiment [40], 52.5 pM; in experiment [41], 3240 pM; in [42], 251 pM. The GI50 is 151 pM in experiment [43]; 427 pM in experiment [44]; 200 pM in experiment [45]; 51.3 pM in [46]; 288 pM in [47]; 1100 pM in experiment [48]. The GI50 in [49] was 43600 pM; in [50], 832 pM; in [51], 209 pM; in [52], 724 pM; in experiment [53], 3240 pM; in [54] it was 339 pM. Further, the GI50 in experiment [55] is 33100 pM; in experiment [56], 309 pM; in experiment [57], 2400 pM; in experiment [58], 363 pM; in experiment [59] it was 661 pM.

Turning to `CO[C@H]1c2nc3c(nc2C[C@@H]2CC[C@H]4C5=C[C@@H]6O[C@]7(O[C@](C)(CO)C[C@H]7O)[C@@H](C)[C@]6(O)[C@@]5(C)[C@H](O)C[C@@H]4[C@]21C)C[C@@]1(C)[C@@H](CC[C@H]2C4=CC[C@@H]5[C@H](C)[C@@]6(OC[C@]45C(=O)C[C@@]21O)OC(C)(C)C[C@H]6O)C3` [CEPHALOSTATIN 10], the EC50 in experiment [60] is 3 ng/mL (≈ 3.13 nM).

On to `CO[C@H]1c2nc3c(nc2C[C@@H]2CC[C@H]4C5=CC[C@@H]6[C@@H](C)[C@]7(OC[C@]56C(=O)C[C@]4(O)[C@]21C)OC(C)(C)C[C@H]7O)C[C@@]1(C)[C@@H](CC[C@H]2C4=C[C@@H]5O[C@]6(O[C@](C)(CO)C[C@H]6O)[C@@H](C)[C@]5(O)[C@@]4(C)[C@H](O)C[C@@H]21)C3`, for which the EC50 in [60] worked out at 2.5 ng/mL (≈ 2.61 nM).
